Literature values as cited in paper PMC7904743, “WIDOCK: a reactive docking protocol for virtual screening of covalent inhibitors” (Journal of Computer-Aided Molecular Design, 2021).
Read-outs that look alike come from different tables or passages of the source.

Tests used:
OTUB2 = OTUB2 protein labeling; experimental actives if % labeling higher than 50%; cited from earlier work
NUDT7 = details: protein labeling at 200 μM; experimental actives if % labeling higher than 50%; cited from earlier work
[1] = thiol reactivity, cited from earlier work
[2] = natural log of average kinetic rate constant
[3] = natural log of average rate constant

SMILES | OTUB2 % labeling (OTUB2) [%] | NUDT7 % labeling (NUDT7) [%] | ln(avg k) [1, 2] | ln(avg k) [1, 3]
CC1CCN(C(=O)CCl)C2CCCCC12 (stereo not shown) [PCM-0102831, CC1CCN(C(=O)CCl)C2CCCCC12] | 0 | 37 | -15.612 | -15.612
O=C(CCl)N(C1CC1)C1CCS(=O)(=O)C1 (stereo not shown) [PCM-0102832, O=C(CCl)N(C1CC1)C1CCS(=O)(=O)C1] | 43 | 0 | -16.200 | -16.200
CC(C)(C)N(Cc1cccc(F)c1)C(=O)CCl [PCM-0102833, CC(C)(C)N(Cc1cccc(F)c1)C(=O)CCl] | 0 | 0 | -16.964 | -16.964
O=C(CCl)N1CCN(S(=O)(=O)c2ccc3ccccc3c2)CC1 [PCM-0102836, O=C(CCl)N1CCN(S(=O)(=O)c2ccc3ccccc3c2)CC1] | 0 | 0 | -15.169 | -15.169
O=C(CCl)N1CCN(S(=O)(=O)c2ccccc2Cl)CC1 [PCM-0102837, O=C(CCl)N1CCN(S(=O)(=O)c2ccccc2Cl)CC1] | 0 | 18 | -15.224 | -15.224
CC(=O)c1sc(NC(=O)CCl)nc1C [PCM-0102838, CC(=O)c1sc(NC(=O)CCl)nc1C] | 0 | 12 | -16.064 | -16.064
COC(=O)C1Cc2ccccc2CN1C(=O)CCl (stereo not shown) [PCM-0102841, COC(=O)C1Cc2ccccc2CN1C(=O)CCl] | 41 | 19 | -14.128 | -14.128
O=C(CCl)Nc1ccc([N+](=O)[O-])cc1Br [PCM-0102848, O=C(CCl)Nc1ccc([N+](=O)[O-])cc1Br] | 0 | 24 | -16.062 | -16.062
CC(C)(C)CCNC(=O)CCl [PCM-0102853, CC(C)(C)CCNC(=O)CCl] | 0 | 0 | -17.028 | -17.028
N#CC1(NC(=O)CCl)CCC1 [PCM-0102854, N#CC1(NC(=O)CCl)CCC1] | 0 | 9 | -16.080 | -16.080
CC(C)(C)C(=O)NNC(=O)CCl [PCM-0102855, CC(C)(C)C(=O)NNC(=O)CCl] | 0 | 7 | -17.593 | -17.593
N#Cc1cccc(C(=O)NNC(=O)CCl)c1 [PCM-0102857, N#Cc1cccc(C(=O)NNC(=O)CCl)c1] | 41 | 0 | -16.900 | -16.900
Cc1ccc(S(C)(=O)=O)cc1NC(=O)CCl [PCM-0102858, Cc1ccc(S(C)(=O)=O)cc1NC(=O)CCl] | 0 | 0 | -16.253 | -16.253
CCOC(=O)N1CCN(C(=O)CCl)CC1 [PCM-0102861, CCOC(=O)N1CCN(C(=O)CCl)CC1] | 0 | 0 | -17.162 | -17.162
O=C(CCl)NC1CCCC(C(F)(F)F)C1 (stereo not shown) [PCM-0102862, O=C(CCl)NC1CCCC(C(F)(F)F)C1] | 14 | 0 | -16.578 | -16.578
CN(Cc1ccsc1)C(=O)CCl [PCM-0102865, CN(Cc1ccsc1)C(=O)CCl] | 0 | 9 | -16.224 | -16.224
O=C(CCl)Nc1ccc2[nH]c(=O)[nH]c2c1 [PCM-0102866, O=C(CCl)Nc1ccc2[nH]c(=O)[nH]c2c1] | 30 | 0 | -15.702 | -15.702
CC1CCCN(C(=O)CCl)C1 (stereo not shown) [PCM-0102867, CC1CCCN(C(=O)CCl)C1] | 0 | 0 | -16.989 | -16.989
O=C(CCl)N(c1ccc(F)cc1)C1C=CS(=O)(=O)C1 (stereo not shown) [PCM-0102868, O=C(CCl)N(c1ccc(F)cc1)C1C=CS(=O)(=O)C1] | 0 | 34 | -15.576 | -15.576
CN(C(=O)CCl)C1=CCCC1 [PCM-0102869, CN(C(=O)CCl)C1=CCCC1] | 0 | 0 | -17.213 | -17.213
O=C(CCl)N1CCOCC1C1CC1 (stereo not shown) [PCM-0102870, O=C(CCl)N1CCOCC1C1CC1] | 0 | 17 | -15.541 | -15.541
O=C(CCl)NC1CCOc2ccccc21 (stereo not shown) [PCM-0102871, O=C(CCl)NC1CCOc2ccccc21] | 44 | 0 | -16.366 | -16.366

SMILES | OTUB2 % labeling (OTUB2) [%] | NUDT7 % labeling (NUDT7) [%] | ln(avg k) [1, 2] | ln(avg k) [1, 3]
Cc1csc(NC(=O)CCl)n1 [PCM-0102872, Cc1csc(NC(=O)CCl)n1] | 0 | 16 | -15.785 | -15.785
O=C(CCl)Nc1cc(F)cc(F)c1 [PCM-0102874, O=C(CCl)Nc1cc(F)cc(F)c1] | 0 | 18 | -15.799 | -15.799
N#Cc1ccc(NC(=O)CCl)cc1 [PCM-0102875, N#Cc1ccc(NC(=O)CCl)cc1] | 8 | 14 | -15.678 | -15.678
Cc1ccccc1CN1CCN(C(=O)CCl)CC1 [PCM-0102876, Cc1ccccc1CN1CCN(C(=O)CCl)CC1] | 0 | 0 | -15.594 | -15.594
CN(C)C(=O)c1ccc(NC(=O)CCl)cc1 [PCM-0102877, CN(C)C(=O)c1ccc(NC(=O)CCl)cc1] | 0 | 0 | -15.682 | -15.682
Cc1cc(C)c(C(C)NC(=O)CCl)cc1C (stereo not shown) [PCM-0102879, Cc1cc(C)c(C(C)NC(=O)CCl)cc1C] | 17 | 0 | -16.314 | -16.314
COC(=O)C1CN(C(=O)CCl)c2ccccc2O1 (stereo not shown) [PCM-0102880, COC(=O)C1CN(C(=O)CCl)c2ccccc2O1] | 11 | 0 | -17.563 | -17.563
O=C(CCl)NCC1COc2ccccc2O1 (stereo not shown) [PCM-0102881, O=C(CCl)NCC1COc2ccccc2O1] | 39 | 0 | -16.328 | -16.328
C=CC(=O)NC(=O)Nc1ccccc1 [PCM-0102883, C=CC(=O)NC(=O)Nc1ccccc1] | 0 | 0 | -16.619 | -16.619
O=C(CCl)NNC(=O)c1ccc([N+](=O)[O-])cc1 [PCM-0102885, O=C(CCl)NNC(=O)c1ccc([N+](=O)[O-])cc1] | 21 | 0 | -16.970 | -16.970
Cc1ccccc1NC(=O)CCl [PCM-0102887, Cc1ccccc1NC(=O)CCl] | 0 | 0 | -16.445 | -16.445
O=C(CCl)N1CCN(c2cnccn2)CC1 [PCM-0102889, O=C(CCl)N1CCN(c2cnccn2)CC1] | 0 | 0 | -15.833 | -15.833
O=C(CCl)Nc1ccc(Cl)nc1 [PCM-0102891, O=C(CCl)Nc1ccc(Cl)nc1] | 0 | 25 | -15.610 | -15.610
CC(=O)Nc1ccc(NC(=O)CCl)c(C(F)(F)F)c1 [PCM-0102895, CC(=O)Nc1ccc(NC(=O)CCl)c(C(F)(F)F)c1] | 0 | 0 | -16.611 | -16.611
O=C(CCl)NCC1CCS(=O)(=O)C1 (stereo not shown) [PCM-0102896, O=C(CCl)NCC1CCS(=O)(=O)C1] | 23 | 0 | -16.032 | -16.032
CN(Cc1cc(C#N)ccc1F)C(=O)CCl [PCM-0102897, CN(Cc1cc(C#N)ccc1F)C(=O)CCl] | 0 | 7 | -15.579 | -15.579
CN(Cc1ccc(Cl)s1)C(=O)CCl [PCM-0102898, CN(Cc1ccc(Cl)s1)C(=O)CCl] | 0 | 29 | -15.575 | -15.575
CN(Cc1cnn(C)c1)C(=O)CCl [PCM-0102899, CN(Cc1cnn(C)c1)C(=O)CCl] | 26 | 8 | -15.596 | -15.596
CCN(C(=O)CCl)c1ccc(F)cc1 [PCM-0102900, CCN(C(=O)CCl)c1ccc(F)cc1] | 0 | 29 | -15.837 | -15.837
NS(=O)(=O)c1ccccc1NC(=O)CCl [PCM-0102903, NS(=O)(=O)c1ccccc1NC(=O)CCl] | 14 | 29 | -14.783 | -14.783
COCC(=O)NC(=O)CCl [PCM-0102904, COCC(=O)NC(=O)CCl] | 0 | 0 | -18.669 | -18.669
